Experimental findings from ChEMBL document CHEMBL4152321, “Synthesis and antiplasmodial activity of glyco-conjugate hybrids of phenylhydrazono-indolinones and glycosylated 1,2,3-triazolyl-methyl-indoline-2,3-diones” (Eur J Med Chem, 2018) are described below.

Data set [1] has as its system Plasmodium falciparum. Kind of data set: Antiplasmodial activity against chloroquine-resistant Plasmodium falciparum K1 infected in human erythrocytes after 72 hrs by SYBR Green 1 staining based fluorescence assay. To be noted: K1, 72 h. It counts as functional, organism-based.
In data set [2] the test system is Plasmodium falciparum. Put plainly: Antiplasmodial activity against chloroquine-sensitive Plasmodium falciparum 3D7 infected in human erythrocytes after 72 hrs by SYBR Green 1 staining based fluorescence assay. Type of data set: functional, organism-based. As to conditions: 3D7, 72 h.
Data set [3] is described as follows: Cytotoxicity against African green monkey Vero cells after 3 days by resazurin dye based fluorescence assay. It counts as cell-based. As to conditions: chlorocebus sabaeus. A general note: The colour change of resazurin is a common sign of viable cells or microbes.
Data set [4] in a line: Selectivity index, ratio of CC50 for African green monkey Vero cells to IC50 for chloroquine-resistant Plasmodium falciparum K1 infected in human erythrocytes. It counts as toxicity, cell-based. As to conditions: read-out: Ratio CC50/IC50.
The nature of data set [5]: Selectivity index, ratio of CC50 for African green monkey Vero cells to IC50 for chloroquine-sensitive Plasmodium falciparum 3D7 infected in human erythrocytes. To be noted: read-out: Ratio CC50/IC50. Type of data set: toxicity, cell-based.

In general, IC50 refers to the midpoint of a concentration-inhibition curve. As usually defined, the CC50 is the concentration giving 50% cytotoxicity. Turning to `COc1ccc(N/N=C2\C(=O)N(Cc3cn(O[C@@H]4O[C@H](CO)[C@H](O)[C@H](O)[C@H]4O)nn3)c3ccccc32)cc1`, the IC50 with Plasmodium falciparum [1] is 5.2 µM; in the data set on Plasmodium falciparum [2], 3.46 µM. The compound also registered a CC50 at 72 h in data set [3] of 76.2 µM. Besides, the selectivity ratio in data set [4] is 14.7; in data set [5], 22.

For the compound `O=C1/C(=N\Nc2ccccc2)c2ccccc2N1Cc1cn(O[C@@H]2O[C@H](CO)[C@H](O)[C@H](O)[C@H]2O)nn1`, the IC50 in the data set with Plasmodium falciparum [1] was 8.68 µM; in the data set on Plasmodium falciparum [2], 4.8 µM. Also, the cytotoxic concentration (CC50) at 72 h in data set [3] was 83.4 µM. For the same compound, the selectivity ratio turned out to be 9.6 in data set [4] and 17.4 in data set [5].

As for `CC1(C)O[C@H]2O[C@H](Cn3cc(CN4C(=O)/C(=N\Nc5ccc(C#N)cc5)c5ccccc54)nn3)[C@H](O)[C@H]2O1`, the half-maximal inhibitory concentration (IC50) with Plasmodium falciparum [1] was 3.4 µM; with Plasmodium falciparum [2], 4.79 µM. This compound registered a CC50 at 72 h in data set [3] of 105 µM. In addition, the selectivity ratio in data set [4] worked out at 30.8; in data set [5], 21.8.

In the case of `O=C1/C(=N\Nc2cccc(Cl)c2)c2ccccc2N1Cc1cn(O[C@@H]2O[C@H](CO)[C@H](O)[C@H](O)[C@H]2O)nn1`, the results for the 50% inhibitory concentration (IC50) in the data set with Plasmodium falciparum [1] and with Plasmodium falciparum [2] were 2.62 µM and 6.74 µM, respectively. In addition, it took 84.5 µM to reach half-maximal cytotoxicity in data set [3] (CC50 at 72 h). Further, the selectivity ratio was found to be 32.2 in data set [4] and 12.5 in data set [5].

Turning to `CC1(C)O[C@H]2O[C@H](Cn3cc(CN4C(=O)/C(=N\Nc5ccc(F)cc5)c5ccccc54)nn3)[C@H](O)[C@H]2O1`, the half-inhibitory concentration (IC50) in the data set with Plasmodium falciparum [1] is 3.99 µM; in the data set with Plasmodium falciparum [2] it was 3.08 µM. Moreover, the 50% cytotoxic concentration (CC50) at 72 h in data set [3] was determined as 83.8 µM. The figures for the selectivity ratio in data set [4] and in data set [5] were 21 and 21.2, respectively.

Consider `COc1ccc(N/N=C2\C(=O)N(Cc3cn(O[C@@H]4O[C@H](CO)[C@@H](O)[C@H](O)[C@H]4O)nn3)c3ccccc32)cc1`, for which the IC50 with Plasmodium falciparum [1] turned out to be 4.89 µM; with Plasmodium falciparum [2], 3.27 µM. Besides, the cytotoxic concentration (CC50) at 72 h in data set [3] turned out to be 79.6 µM. Moreover, the selectivity ratio came to 16.3 in data set [4] and 24.4 in data set [5].

In the case of `N#Cc1ccc(N/N=C2\C(=O)N(Cc3cn(O[C@@H]4O[C@H](CO)[C@H](O)[C@H](O)[C@H]4O)nn3)c3ccccc32)cc1`, the IC50 was 3.3 µM in the data set on Plasmodium falciparum [1] and 7.65 µM in the data set on Plasmodium falciparum [2]. This compound displayed a 50% cytotoxic concentration (CC50) at 72 h in data set [3] of 93.7 µM. The selectivity ratio in data set [4] amounted to 28.4; in data set [5], 12.2.

Regarding `O=C1/C(=N\Nc2ccccc2)c2ccccc2N1Cc1cn(O[C@@H]2O[C@H](CO)[C@@H](O)[C@H](O)[C@H]2O)nn1`, the IC50 was 8.11 µM in the data set on Plasmodium falciparum [1] and 4.7 µM with Plasmodium falciparum [2]. Further, in data set [3], the cytotoxic concentration (CC50) at 72 h turned out to be 88.5 µM. The selectivity ratio in data set [4] came out at 10.9; in data set [5], 18.8.

For the compound `O=C1/C(=N\Nc2ccc(Br)cc2)c2ccccc2N1Cc1cn(O[C@@H]2O[C@H](CO)[C@H](O)[C@H](O)[C@H]2O)nn1`, the IC50 with Plasmodium falciparum [1] turned out to be 4.68 µM; with Plasmodium falciparum [2], 3.59 µM. In addition, the cytotoxic concentration (CC50) at 72 h in data set [3] worked out at 91.5 µM. Besides, the selectivity ratio in data set [4] stood at 19.5; in data set [5], 25.8.

As to `CC1(C)O[C@H]2O[C@H](Cn3cc(CN4C(=O)/C(=N\Nc5cccc(Cl)c5)c5ccccc54)nn3)[C@H](O)[C@H]2O1`, the results for the IC50 with Plasmodium falciparum [1] and with Plasmodium falciparum [2] were 3.42 µM and 4.47 µM, respectively. The midpoint of cytotoxicity in data set [3], the CC50 at 72 h, lay at 70 µM. Moreover, the selectivity ratio worked out at 20.5 in data set [4] and 15.7 in data set [5].

For `O=C1/C(=N\Nc2ccc(F)cc2)c2ccccc2N1Cc1cn(O[C@@H]2O[C@H](CO)[C@H](O)[C@H](O)[C@H]2O)nn1`, the figures for the IC50 with Plasmodium falciparum [1] and with Plasmodium falciparum [2] were 3.23 µM and 6.64 µM, respectively. The same compound gave a cytotoxic concentration (CC50) at 72 h in data set [3] of 92.1 µM. Moreover, the selectivity ratio in data set [4] stood at 28.5; in data set [5], 13.9.
